Measurements published in patent US5179217A, “Method of preparing photochemotherapic alkylangelicin compounds” (priority 1982, dated 1993).
“And” between values parts separate entries of the source, which are not always exact repeats. Identical values can stand only once. Like-named read-outs stand apart in the source and are kept apart here.

How the values were obtained:
DNA [1] = assay: Binding parameters of the complexes between 6-alkylangelicins and DNA (in the dark); parameters: K values: unit not given here; conditions: for -n (number of nucleotides occluded by one bound molecule) / l/-n (frequency of binding sites, ligands bound per nucleotide): according to Mc Ghee and Von Hippel; for K values: complex with DNA
From the text: (§1) The 6-alkylangelicins show a strong affinity with DNA in the dark, thus forming molecular intercalated complexes; moreover the 6-methylangelicins complexed to DNA by irradiation bind very strongly to the macromolecule, inducing only monofunctional lesions (Table I).
(§2) Binding parameters of the complexes between 6-alkylangelicins and DNA
^a According to Mc Ghee and Von Hippel, (J.Mol. Biol., 86, 469, 1974)
-n is defined here as the number of nucleotides occluded by one bound
molecule of angelicin derivative.
^b l/-n defines, according to Mc Ghee and Von Hippel, the frequency o
binding sites; in other words, the number of ligands bound per nucleotide
and can be considered analogous to the "-n" value obtained by the classic
Scratchard method (Ann. N.Y. Acad. Sci., 51, 660, 1949).

[2] = test system: Ehrlich ascites tumor cells; assay: Inhibition of DNA synthesis in Ehrlich ascites tumor cells; type: cell-based; conditions: relative to angelicin = 100
From the text: (§3) The 6-alkylangelicins show a strong antiproliferative activity in Ehrlich ascites tumor cells (Table II) and on the skin of mice in terms of DNA synthesis inhibition (Table III). These compounds are practically unable to induce skin phototoxicity on albino guinea-pig skin (Table II).
(§4) (a) Determined according to Bordin et al., Il Farmaco, Ed.Sc., 36, 506,

epidermal DNA synthesis [3] = assay: Inhibition of epidermal DNA synthesis in the mouse in vivo after topical application and UV-A irradiation; conditions: topical 50 μg/cm^2, UV-A 9 J/cm^2, ± S.E.
Protocol: Inhibition of epidermal DNA synthesis in the mouse "in vivo"
after topical application (50 μg/cm^2) of the compound and

[4] = Acute toxicity (LD50) in mice; conditions: mouse, in vivo
E. coli WP2-uvr A = type: cell-based
Protocol: Mutagenic activity of 6-alkylangelicins on E. coli
WP2-uvr A by irradiation with UV-A (a).
(a) The test was performed at the furocoumarin concentration of 5 μg/m
according to Venturini et al., Chem. Biol. Interactions, 30, 203, 1980.

psoriatic lesions = conditions: for % clearance: topical 5 μg/cm^2 + UV-A (maximal dose 4-10 J/cm^2), 9-15 treatments; for dark pigmentation of human skin: treated area, patients
Protocol: In the treated patients various areas 4×4 cm of the affected skin were used:
a) in the first area an ethanolic solution (0.1% W/V) of the compound under investigation, was applied until a concentration of 5 μg/cm^2 was reached and left to evaporate by the heat of the body (or by hot air stream).
c) a third area was treated in the same way as area a), but was not irradiated with UV-A;
d) a fourth area was irradiated as in a) with the same dose of UV-A light in the absence of any compound.

epidermal DNA synthesis [5] = assay: Inhibition of epidermal DNA synthesis in the mouse in vivo after oral administration and UV-A irradiation; conditions: light or radiation study, read-out: % inhibition of epidermal DNA synthesis
Protocol: The strong activity of the 6-alkylangelicins according to the invention in inhibiting the epidermal DNA synthesis of mice after oral administration (see Table VI) allows to consider these compounds effective also by oral administration in humans and UV-A irradiation.
Inhibition of epidermal DNA synthesis
in the mouse "in vivo" after oral
administration of the compound (250 mg/kg)
and UV-A irradiation (9 J/cm^2) (a).
as §4

DNA [6] = assay: Rate constant of photoreaction with DNA; type: biochemical; conditions: irradiation
From the text: as §1, §2
and rate constant of their photoreactions with the macromolecule.

albino guinea-pig skin = assay: Skin erythemogenic activity / skin phototoxicity on albino guinea-pig skin; conditions: in vivo
From the text: as §3, §4

mice = assay: Acute toxicity (LD50) in mice; conditions: mice, per os; 6,4'-dimethylangelicin in methylcellulose suspension
DNA [7] = conditions: reference compound; data from Dall'Acqua et al. 1979; cited from earlier work
DNA [8] = conditions: reference compound; data from Dall'Acqua et al. 1979; cited from earlier work; remark: listed apart in the source
[9] = UV-A irradiation time 10 seconds
[10] = UV-A irradiation time 20 seconds
[11] = UV-A irradiation time 30 seconds
[12] = mouse in vivo, oral 250 mg/kg, UV-A 9 J/cm^2, ± S.E.
[13] = UV-A irradiation time 60 seconds

| SMILES | -n (number of nucleotides occluded by one bound molecule) (DNA [1]) | l/-n (frequency of binding sites, ligands bound per nucleotide) (DNA [1]) | K values (DNA [1]) | Relative activity (inhibition of DNA synthesis in Ehrlich ascites tumor cells) [2] | % inhibition of epidermal DNA synthesis (epidermal DNA synthesis [3]) [%] | no of mutants per 10^6 survivors (E. coli WP2-uvr A; [9]) | no of mutants per 10^6 survivors (E. coli WP2-uvr A; [10]) | no of mutants per 10^6 survivors (E. coli WP2-uvr A; [11]) | inhibition at 250 mg/kg (epidermal DNA synthesis [5]; [12]) [%] | rate constant of photoreaction with DNA (DNA [6]) [min^-1 × 10^2] | skin erythemogenic activity (albino guinea-pig skin) | no of mutants per 10^6 survivors (E. coli WP2-uvr A; [13]) | also measured |
| --- | --- | --- | --- | --- | --- | --- | --- | --- | --- | --- | --- | --- | --- |
| Cc1cc2ccc(=O)oc2c2c(C)coc12 [6,4'-dimethylangelicin] | 16.39 | 0.061 ± 0.003 | 6,300 ± 541 | 1096 | 36.56 ± 3.9 | 0.96 mutants per 10^6 survivors | 1.76 mutants per 10^6 survivors | 2.63 mutants per 10^6 survivors | 49.2 ± 8 | 9.90 | - |  | LD50 ([4]; ip): 750 mg/kg; LD50 ([4]; po): > 2000 mg/kg; genotoxicity, mutagenic activity (E. coli WP2-uvr A): low genotoxicity; pigmental capacity (psoriatic lesions; single psoriatic patients, topical 5 μg/cm^2 + UV-A): +; % clearance (psoriatic lesions; single psoriatic patients, listed as 6,4'-DMA): 100% and 90%; dark pigmentation of human skin (psoriatic lesions): evident dark pigmentation in the treated area, less pronounced than that induced by 8-MOP; skin phototoxicity on guinea-pig skin (albino guinea-pig skin): absence of skin phototoxicity on guinea-pig skin |
| Cc1cc(=O)oc2c1cc(C)c1occ(C)c12 [6,4,4'-trimethylangelicin] | 10.99 | 0.091 ± 0.0045 | 10,100 ± 1190 | 41666 |  | 0.84 mutants per 10^6 survivors | 1.18 mutants per 10^6 survivors | 1.24 mutants per 10^6 survivors | 67.7 ± 8.2 | 13.30 | - | 1.98 mutants per 10^6 survivors | genotoxicity, mutagenic activity (E. coli WP2-uvr A): low genotoxicity; % clearance (psoriatic lesions; single psoriatic patients, listed as 6,4,4'-TMA): 100% and 95% and 90%; dark pigmentation of human skin (psoriatic lesions): appears more active; skin phototoxicity on guinea-pig skin (albino guinea-pig skin): absence of skin phototoxicity on guinea-pig skin |
| Cc1cc2c(o1)c(C)cc1c(C)cc(=O)oc12 [6,4,5'-trimethylangelicin] | 22.22 | 0.045 ± 0.002 | 3,310 ± 281 | 646 |  | 0.62 mutants per 10^6 survivors | 0.91 mutants per 10^6 survivors | 1.23 mutants per 10^6 survivors | 36.8 ± 8.5 | 7.02 | - | 1.93 mutants per 10^6 survivors |  |
| Cc1cc(=O)oc2c1cc(C)c1occc12 [6,4-dimethylangelicin] | 15.87 | 0.063 ± 0.003 | 2,990 ± 232 | 625 | 47.05 ± 4.3 | 0.24 mutants per 10^6 survivors | 0.7 mutants per 10^6 survivors | 0.99 mutants per 10^6 survivors | 58.4 ± 13 | 5.23 | - | 1.83 mutants per 10^6 survivors |  |
| Cc1cc2c(o1)c(C)cc1ccc(=O)oc12 [6,5'-dimethylangelicin] | 12.82 | 0.078 ± 0.004 | 1,975 ± 136 | 210 |  |  |  |  | 22.5 ± 12 | 3.00 | - |  |  |
| Cc1cc2c(o1)c(C)c(C)c1ccc(=O)oc12 [6,5,5'-trimethylangelicin] | 14.29 | 0.070 ± 0.0035 | 3,730 ± 339 |  | 36.01 ± 11.7 |  |  |  | 60.6 ± 14.1 | 2.30 |  |  |  |
| Cc1c(C)c2occc2c2oc(=O)ccc12 [6,5-dimethylangelicin] |  |  |  |  | 52.83 ± 2.3 |  |  |  | 50.1 ± 19 |  |  |  |  |
| Cc1cc2ccc(=O)oc2c2ccoc12 [6-methylangelicin] | 20.83 | 0.048 ± 0.002 | 925 ± 64 | 95 | 29.25 ± 13.3 |  |  |  | 19.6 ± 9.2 | 3.60 | - |  |  |
| COc1c2occc2cc2ccc(=O)oc12 [8-MOP, 8-methoxypsoralen, reference compound] |  |  |  |  | 61.0 ± 1.6 | 0.4 mutants per 10^6 survivors | 1.15 mutants per 10^6 survivors | 1.5 mutants per 10^6 survivors | 39.1 ± 3.7 |  | ++ | 3.1 mutants per 10^6 survivors | LD50 ([4]; ip): 300 mg/kg; LD50 (mice): 0.75 g/kg; -n (number of nucleotides occluded by one bound molecule) (DNA [7]): 7.81; K values (DNA [7]): 736; l/-n (frequency of binding sites, ligands bound per nucleotide) (DNA [7]): 0.128; no of mutants per 10^6 survivors (E. coli WP2-uvr A; UV-A irradiation time 90 seconds): 7.0 mutants per 10^6 survivors; induction of skin erythema in humans (psoriatic lesions; human, in vivo): severe phototoxic response; rate constant of photoreaction with DNA (DNA [8]): 3.10 min^-1 × 10^2 |
| O=c1ccc2ccc3occc3c2o1 [angelicin] | 15.87 | 0.063 ± 0.003 | 560 |  | 17.5 ± 2.5 |  |  |  |  | 1.10 |  |  | inhibition at 250 mg/kg (epidermal DNA synthesis [5]; Mus musculus, po): 28 ± 2% |
